From patent publication US10004718B2, “Erythropoietin expression promoter” (TOHOKU UNIVERSITY, priority 2012, dated 2018)

Key:
[1] = Liver function in mice (plasma GOT, GPT, erythropoietin); assay type: in vivo, mouse; settings: oral, 7 consecutive days
Method: Compound #4 (10 mg/100 μl of DMSO) (10 μl) and compound #4 (20 mg/100 μl of DMSO) (15 μl) were mixed with 190 μl and 185 μl, respectively, of corn oil to prepare low-concentration (5 μg/ml) compound #4 and high-concentration (15 μg/ml) compound #4 mixed solutions (200 μl each). Each mixed solution (200 μl) was orally administered to each mouse (C57BL/6N 8 W, male, 21-25 g) between 15:00 to 18:00 every day using a sonde. This administration was carried out for 7 consecutive days (n=4). Mice orally given DMSO were used as controls (n=4).
24 hours after the final administration, each mouse was cervically dislocated, and 500 μl of blood was collected from the heart. Then, an anticoagulant (10 μl of heparin) was added thereto, and the resulting blood was centrifuged (12000 rpm×20 min, 4° C.) to isolate plasma. The plasma concentrations of indexes for liver functions (GOT [glutamic oxaloacetic transaminase] and GPT [glutamic pyruvic transaminase]) were measured using Transaminase CII-Test Wako (manufactured by Wako Pure Chemical Industries, Ltd.) to examine the effect of improving liver functions. Also, the plasma concentration ([…]) of erythropoietin was measured using a kit (Quantikine Mouse/Rat Epo Immunoassay, manufactured by R&D Systems, Inc.).

[2] = tested on: Hep3B cells; test: Cytotoxicity, cell survival rate of Hep3B cells (Cell Counting Kit-8); assay type: cell-based, human
Method: The Hep3B cells were seeded at 1×10^4 cells/well to a 24-well cell culture plate and then cultured under normal oxygen (20% O2) for 24 hours. […] After further culture under normal oxygen (20% O2) for 24 hours, the number of live cells was measured using Cell Counting Kit-8 (manufactured by Dojindo Laboratories) to calculate the survival rate of the cells. Hep3B cells cultured in the absence of the compound (DMSO added [1%]) (“DMSO” of FIG. 9) and Hep3B cells cultured in the presence of HIF activators (DMOG [10 μM] and ciclopirox[10 μM]) (“DMOG” and “Ciclopirox”, respectively, of FIG. 9) were used as controls.

[3] = Erythrocyte production in mice (Hct value and hemoglobin, i-STAT); assay type: in vivo, mouse; settings: 1 mg/200 μl of CMC oral, 7 consecutive days, n=3, mean±standard deviation
Method: Compound #4 (1 mg) was mixed with 200 μl of CMC (carboxymethylcellulose). This compound #4 mixed solution (1 mg/200 μl of CMC) was orally administered to each mouse (C57BL/6N 8 W, male, 21-25 g) between 15:00 to 18:00 every day using a sonde. This administration was carried out for 7 consecutive days (n=3). Mice orally given CMC were used as controls (n=3).
24 hours after the final administration, each mouse was cervically dislocated, and 500 μl of blood was collected from the heart. Then, an anticoagulant (10 μl of heparin) was added thereto, and the Hct value and the hemoglobin concentration were measured using i-STAT (manufactured by Fuso Pharmaceutical Industries, Ltd.).

[4] = tested on: human kidney-derived cell line HK-2; test: Renal protective effect: cisplatin cytotoxicity to HK-2 cells; assay type: cell-based; settings: for HK-2 cell death by cisplatin: cisplatin 30 μM
Method: The HK-2 cells were seeded at 5×10^3 cells/well to a 96-well cell culture plate and then cultured overnight. Cisplatin and compound #4 were mixed at 30 μM and each concentration (30, 10, 3, 1, 0.3, 0.1, 0.03, 0.01, and 0.003 μM), respectively, into DMEM/F12 common medium. After further culture for 24 hours, conversion to formazan dye by mitochondrial dehydrogenase in live cells was detected by the measurement of absorbance at OD […] using a kit (Cell counting kit-8, manufactured by Dojindo Laboratories) to analyze the ratio of live cells. HK-2 cells cultured in the absence of cisplatin (“Cisplatin-” of FIG. 14) and HK-2 cells cultured in the presence of cisplatin (30 μM) and in the absence of the compound #4 (“Cisplatin+” of FIG. 14) were used as controls.
The cells were cultured in advance for 1 hour with the compound #4 of the present invention having a concentration of 3 μM and then analyzed according to the method described in Example 12.

[5] = tested on: MCA (middle cerebral artery) occlusion mouse models; test: Cerebral ischemic injury, MCA occlusion mouse model (TTC staining); assay type: in vivo; settings: 40 mg/kg intraperitoneal 4 hours before ischemia, 24 hours after reperfusion, vs DMSO, n=1
Method: Two types of compounds (compounds #4 and 35) (40 mg/kg of mouse body weight) were each intraperitoneally administered to a mouse 4 hours before ischemia (n=1). A vehicle (DMSO) was administered to a control (n=1). Anesthesia was induced in each mouse with 4% halothane and oxygen and maintained by the intraperitoneal administration of ketamine (40 mg/kg) and xylazine (4 mg/kg) at 30-minute intervals. After the induction of systemic anesthesia, bifurcation of the common carotid artery was exposed under a microscope. A 6-0 nylon thread having a silicon-coated tip was inserted from the internal carotid artery toward the central side so that its tip reached the anterior communicating artery. The common carotid artery was further ligated to block blood flow into the middle cerebral artery. After the ischemic burden for 30 minutes, the nylon thread was removed so that the ligated common carotid artery was released to induce reperfusion.
24 hours after the reperfusion, each mouse was cervically dislocated and then decapitated to excise the brain. Five coronal sections of the cerebrum having a thickness of 2 mm were prepared from the boundary between the cerebrum and the cerebellum. The coronal sections of the cerebrum were stained with TCC through a reaction at 37° C. for 20 minutes with a TTC solution diluted to 1.5% with PBS. […]

[6] = tested on: ISN-1e cells; test: ATP production in islet of Langerhans-derived ISN-1e cells (insulin secretion); assay type: cell-based, rat; settings: compound 0.03 to 10 μM, 3 hours
Method: The ISN-1e cells were seeded at 2×10^5 cells/well to a 96-well cell culture plate and then cultured overnight. Compound #4 was mixed at each concentration (10, 3, 1, 0.3, 0.1, and 0.03 μM) into RPMI11640 common medium 2. After further culture for 3 hours, the concentration of ATP produced in the medium was measured using ATP Assay Reagent “of Cells” (manufactured by Toyo B-Net Co., Ltd.) and GloMa 96 Microplate Luminometer (manufactured by Promega K.K.). ISN-1e cells cultured in the absence of the compound (DMSO added [1%]) (“control” of FIG. 16) and ISN-1e cells cultured in the presence of an HIF activator (FG-4592 [10, 3, 1, 0.3, and 0.1 μM]) were used as controls.

With `O=C(CC(C(=O)O)c1c[nH]c2ccccc12)c1ccc(F)cc1` (centres unmarked) [compound #4, 4-(4-Fluorophenyl)-2-(1H-indol-3-yl)-4-oxo-butanoic acid] the “erythropoietin concentration in the mouse plasma” value ([1]; low concentration (5 μg/ml) and high concentration (15 μg/ml)) was “elevate the erythropoietin concentration”, the “GOT concentration in the plasma” value ([1]; mice) was “lower” and the “GPT concentration in the plasma” value ([1]; mice) was “lower”. For the same compound, the “cell survival rate compared with cells cultured in the absence of the compound (DMSO)” value ([2]; 0.5 μM compound, 24 hours) was “almost the same”, the “cell survival rate compared with cells cultured using 0.5 μM compound” value ([2]; 100 μM compound, 24 hours) was “approximately 70%” and the “cell survival rate compared with cells cultured using 0.5 μM compound” value ([2]; 1, 5, or 10 μM compound, 24 hours) was “rarely different”. For the same compound, the cytotoxicity ([2]; concentration ranging from 0 to 10 μM) was “hardly exhibit cytotoxicity”, the Hct value [3] was 47.7±0.816 % PCV and the “hemoglobin concentration in the mouse blood” value [3] was 16.2 ± 0.286 g/dL. The “HK-2 cell death by cisplatin” value ([4]; compound at a concentration around 30 μM) was “efficiently suppress cell death”, the “HK-2 cell death by cisplatin” value ([4]; compound at least at a concentration of 1 to 300 μM, 24 hours) was “significantly suppressed” and the “HK-2 cell death by cisplatin with preincubation compared with no preincubation” value ([4]; preincubation 1 hour with 3 μM compound) was “further suppressed”. The “volume of the cerebral infarction site” value [5] was “decreased” and the “ATP concentration in the ISN-1e cells relative to the control” value [6] was “two or more times relative to the control”.
